From PMC4301629 (PLoS ONE, 2015)

Key:
CCR5_CHO cells = assay: Ca2+ transient response in CCR5_CHO negative control cells; assay type: cell-based, Chinese hamster; conditions: S4 Fig.
Description: Cells were resuspended in Hank’s balanced salt solution (Invitrogen) supplemented with 2 mM CaCl2, 10 mM HEPES pH 7.4, 2.5 mM probenecid, plus 1g/L each of glucose and bovine serum albumin (BSA), and seeded in poly-D-lysine coated 96-well black plates with transparent bottom (Costar) at a density of 50,000 cells/0.1 mL per well. Cells were then incubated for 1 h at 37°C with an additional 0.1 mL of buffer containing 4 μM fluo3-AM that was diluted from a stock solution containing 1 mM fluo3-AM dye in DMSO with 10% pluronic acid. After dye loading incubation, plates were washed twice with 100 μL of buffer and refilled with 100 μL of assay buffer. In experiments testing the effect of antagonists, 25 μL of buffer from wells of washed cells were replaced with 25 μL of vehicle or 4× antagonist solution. […] Agonist-evoked Ca^2+ mobilization responses of cell populations were monitored at room temperature simultaneously in all wells of the assay plate using the plate-imaging fluorometric reader FLIPR (MDS Analytical Technologies, Sunnyvale, CA). Measurements consisted of recording baseline fluorescence signal for 10 seconds followed by addition of the test substance and 1–2 minute readings of Ca^2+ transient responses as reported by changes in Ca^2+ dye fluorescence (excitation 488 nm, emission 510–570 nm). […]

α1A-AR [1] = molecular target: T1, α1A-AR (Homo sapiens, UniProt P35348); assay: Translocation of GFP-tagged β-arrestin-1/2 in HEK293 cells expressing FLAG-α1A-AR (confocal microscopy); assay type: cell-based; parameters: expressed in transfected cells; host or cells: HEK-293/EBNA (baculovirus transduction, NaBu induction); conditions: HEK293, 1 μM A-61603 or 1 mM Iso
T1 sequence (P35348 1-466): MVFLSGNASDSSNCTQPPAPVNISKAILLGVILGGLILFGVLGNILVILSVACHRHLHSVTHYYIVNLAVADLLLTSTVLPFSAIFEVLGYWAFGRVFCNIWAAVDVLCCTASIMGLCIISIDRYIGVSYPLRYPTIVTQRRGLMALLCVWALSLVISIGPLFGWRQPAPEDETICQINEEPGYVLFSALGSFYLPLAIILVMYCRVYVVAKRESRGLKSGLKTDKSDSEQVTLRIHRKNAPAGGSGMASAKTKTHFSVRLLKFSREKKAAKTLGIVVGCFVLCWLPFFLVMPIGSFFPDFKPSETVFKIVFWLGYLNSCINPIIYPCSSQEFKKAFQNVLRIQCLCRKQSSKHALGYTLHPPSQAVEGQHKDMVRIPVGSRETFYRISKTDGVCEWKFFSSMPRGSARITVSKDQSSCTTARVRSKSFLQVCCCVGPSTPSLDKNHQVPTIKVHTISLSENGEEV
Description: HEK293 cells were transiently co-transfected with FLAG-tagged α1A – AR and one of the following GFP-tagged proteins: Rab5 (Rab5 Q79L) variant, Rab11 (Rab11 S25N) variant, β-arrestin-1 or β-arrestin-2. Rab5 and Rab11 were kindly provided by Dr. Marino Zerial (Max Planck Institute of Molecular Cell Biology and Genetics, Dresden, Germany). […] After treatment, cells were fixed with freshly prepared 3.7% paraformaldehyde in PBS for 15 min at room temperature. Subsequently, cells were permeabilized with 0.1% Triton X-100 (Sigma-Aldrich) in PBS for 5 min, followed by nonspecific binding site blocking with 3% normal serum (Santa Cruz Biotechnology) in PBS for 1 h. Incubation with Alexa Fluor-568 conjugated anti-FLAG antibodies in blocking solution was done as directed by the manufacturer. Confocal microscopy was performed using a Zeiss LSM 510 META laser scanning microscope (Carl Zeiss, Inc., Thornwood, NY) equipped with a 60X objective, using the following laser wavelengths: excitation at 488 nm and emission at 505–530 nm; excitation at 543 nm and emission at 560–615 nm.
HEK293 cells were co-transfected with FLAG-tagged α1A – AR and GFP- tagged β-arrestin-1 (left panels) or β-arrestin-2 (right panels). […] Cells were then fixed, permeabilized, stained with Alexa Fluor-568 conjugated anti-FLAG antibodies, and analyzed employing confocal microscopy.

α1A-AR [2] = molecular target: T1, α1A-AR; assay: IP accumulation (IP-One HTRF) in α1A-AR transduced HEK-293/EBNA cells; assay type: cell-based; parameters: expressed in transfected cells; host or cells: HEK-293/EBNA (baculovirus transduction, NaBu induction); conditions: α1A-AR transduced HEK-293/EBNA; Iso up to 10 mM
Description: Prior to experiments, cells were transduced with baculovirus strains designed for transient expression of α1A-AR or aldehyde oxidase (negative control). This was performed by incubating cells with virus (MOI 100–150) for 3 to 4 h, followed by exchange into fresh serum free growth medium supplemented with 4 mM sodium butyrate (NaBu). Cells were grown for another 14 to 18 h and then examined for agonist-evoked responses in transient Ca^2+ release, IP accumulation or pERK activation assays. The surface receptor expression density was determined by flow cytometry via immunofluorescence labeling of an N-terminal HA epitope tag on the receptor and radioligand binding in partially purified membranes.
After 10–20 minutes, 10 μL of agonist was added followed by incubation for 5 to 30 minutes. Stimulation was stopped by addition of lysis buffer. Second messenger levels were determined using a homogeneous immunoassay method with time-resolved FRET detection (IP-One HTRF, Cisbio International) according to protocols provided by the supplier. Sample fluorescence was measured with a Nanoscan plate reader (IOM, Berlin). Each data point represents the average of quadruplicate determinations and each experiment was performed at least two times independently.

CC(C)NCC(O)c1ccc(O)c(O)c1 (stereo not drawn) [Iso, isoproterenol]
Ca2+ transient response (CCR5_CHO cells): not observed | translocation of β-arrestin-1 / β-arrestin-2 (α1A-AR [1]): did not cause visible β-arrestin rearrangement | IP accumulation (α1A-AR [2]): no significant accumulation of IP was detected
